Laboratory results from PubChem BioAssay AID2060900 (Molecular Pharmacology Branch, DTP, NCI, 2025).

Test system: 521955-158-R2-J5-PDC complex spheroids, viability
Assay: Anticancer human tumor 521955-158-R2-J5-PDC patient-derived pancreatic carcinoma cell line growth inhibition [RAS]
Settings: for IC50: curve of first compound; for viability, T/C: stronger effect = lower value
Summary of the method: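 Multi-cell-type spheroids: tumor cells plus HUVEC endothelial cells and mesenchymal stem cells. RAS-pathway inhibitors were combined with targeted agents, each dosed in half-log steps down from clinical Cmax, or from 10 microM when Cmax was unknown.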

[1] = second compound 0.000949 µM, first compound 0.0316 µM
[2] = second compound 0.000949 µM, first compound 0.1 µM
[3] = second compound 0.000949 µM, first compound 0.316 µM
[4] = second compound 0.000949 µM, first compound 1 µM
[5] = second compound 0.000949 µM, first compound 3.16 µM
[6] = second compound 0.000949 µM, first compound 10 µM
[7] = second compound 0.003 µM, first compound 0.0316 µM
[8] = second compound 0.003 µM, first compound 0.1 µM
[9] = second compound 0.003 µM, first compound 0.316 µM
[10] = second compound 0.003 µM, first compound 1 µM
[11] = second compound 0.003 µM, first compound 3.16 µM
[12] = second compound 0.003 µM, first compound 10 µM
[13] = second compound 0.00949 µM, first compound 0.0316 µM
[14] = second compound 0.00949 µM, first compound 0.1 µM
[15] = second compound 0.00949 µM, first compound 0.316 µM
[16] = second compound 0.00949 µM, first compound 1 µM
[17] = second compound 0.00949 µM, first compound 3.16 µM
[18] = second compound 0.00949 µM, first compound 10 µM
[19] = second compound 0.03 µM, first compound 0.0316 µM
[20] = second compound 0.03 µM, first compound 0.1 µM
[21] = second compound 0.03 µM, first compound 0.316 µM
[22] = second compound 0.03 µM, first compound 1 µM
[23] = second compound 0.03 µM, first compound 3.16 µM
[24] = second compound 0.03 µM, first compound 10 µM
[25] = second compound 0.0949 µM, first compound 0.0316 µM
[26] = second compound 0.0949 µM, first compound 0.1 µM
[27] = second compound 0.0949 µM, first compound 0.316 µM
[28] = second compound 0.0949 µM, first compound 1 µM
[29] = second compound 0.0949 µM, first compound 3.16 µM
[30] = second compound 0.0949 µM, first compound 10 µM
[31] = second compound 0.3 µM, first compound 0.0316 µM
[32] = second compound 0.3 µM, first compound 0.1 µM
[33] = second compound 0.3 µM, first compound 0.316 µM
[34] = second compound 0.3 µM, first compound 1 µM
[35] = second compound 0.3 µM, first compound 3.16 µM
[36] = second compound 0.3 µM, first compound 10 µM
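Further: compound exposure lasted seven days before the viability read.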
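Wherever viability, T/C is given: spheroids also contain HUVEC endothelial cells and mesenchymal stem cells as stroma.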

SMILES: CC1(O)CCCC1n1c(=O)c(C(F)F)cc2cnc(NC3CCN(S(C)(=O)=O)CC3)nc21 (stereo unspecified) + CCn1c(-c2cc(N3CCN(C)CC3)cnc2C(C)OC)c2c3cc(ccc31)-c1csc(n1)CC(NC(=O)C1CC1C)C(=O)N1CCCC(N1)C(=O)OCC(C)(C)C2
- IC50 (second compound 0.000949 µM): 31.6 nM
- IC50 (second compound 0.003 µM): < 31.6 nM
- IC50 (second compound 0.00949 µM): < 31.6 nM
- IC50 (second compound 0.03 µM): < 31.6 nM
- IC50 (second compound 0.0949 µM): < 31.6 nM
- IC50 (second compound 0.3 µM): < 31.6 nM
- viability, T/C [1]: 33%
- viability, T/C [2]: 39%
- viability, T/C [3]: 36.6%
- viability, T/C [4]: 42.8%
- viability, T/C [5]: 63.2%
- viability, T/C [6]: 9%
- viability, T/C [7]: 35.6%
- viability, T/C [8]: 34.5%
- viability, T/C [9]: 37.5%
- viability, T/C [10]: 43.1%
- viability, T/C [11]: 50.5%
- viability, T/C [12]: 10.9%
- viability, T/C [13]: 29.2%
- viability, T/C [14]: 29.9%
- viability, T/C [15]: 33.2%
- viability, T/C [16]: 32.6%
- viability, T/C [17]: 49.6%
- viability, T/C [18]: 9.41%
- viability, T/C [19]: 18.9%
- viability, T/C [20]: 20.1%
- viability, T/C [21]: 20.8%
- viability, T/C [22]: 24.8%
- viability, T/C [23]: 28.9%
- viability, T/C [24]: 6.82%
- viability, T/C [25]: 10.6%
- viability, T/C [26]: 13.1%
- viability, T/C [27]: 13.9%
- viability, T/C [28]: 16.2%
- viability, T/C [29]: 21.5%
- viability, T/C [30]: 7%
- viability, T/C [31]: 10.8%
- viability, T/C [32]: 11.3%
- viability, T/C [33]: 11.2%
- viability, T/C [34]: 13.9%
- viability, T/C [35]: 19.1%
- viability, T/C [36]: 6.07%

SMILES: CCC(CC)c1cc(NC2CCC(N)C2)n2nccc2n1 (stereo unspecified) + CCn1c(-c2cc(N3CCN(C)CC3)cnc2C(C)OC)c2c3cc(ccc31)-c1csc(n1)CC(NC(=O)C1CC1C)C(=O)N1CCCC(N1)C(=O)OCC(C)(C)C2
- IC50 (second compound 0.000949 µM): < 31.6 nM
- IC50 (second compound 0.003 µM): 31.6 nM
- IC50 (second compound 0.00949 µM): < 31.6 nM
- IC50 (second compound 0.03 µM): < 31.6 nM
- IC50 (second compound 0.0949 µM): < 31.6 nM
- IC50 (second compound 0.3 µM): < 31.6 nM
- viability, T/C [1]: 39%
- viability, T/C [2]: 50.8%
- viability, T/C [3]: 56%
- viability, T/C [4]: 48.2%
- viability, T/C [5]: 11.8%
- viability, T/C [6]: 10.7%
- viability, T/C [7]: 47.5%
- viability, T/C [8]: 44.3%
- viability, T/C [9]: 50.6%
- viability, T/C [10]: 43%
- viability, T/C [11]: 6.49%
- viability, T/C [12]: 10.2%
- viability, T/C [13]: 34.5%
- viability, T/C [14]: 32.3%
- viability, T/C [15]: 43.7%
- viability, T/C [16]: 44.4%
- viability, T/C [17]: 9.61%
- viability, T/C [18]: 8.45%
- viability, T/C [19]: 23.9%
- viability, T/C [20]: 23.9%
- viability, T/C [21]: 24.4%
- viability, T/C [22]: 21.2%
- viability, T/C [23]: 7.51%
- viability, T/C [24]: 7.75%
- viability, T/C [25]: 12.3%
- viability, T/C [26]: 11.3%
- viability, T/C [27]: 17.4%
- viability, T/C [28]: 12.1%
- viability, T/C [29]: 9.07%
- viability, T/C [30]: 8.98%
- viability, T/C [31]: 10.9%
- viability, T/C [32]: 10.8%
- viability, T/C [33]: 11.7%
- viability, T/C [34]: 12.6%
- viability, T/C [35]: 10.9%
- viability, T/C [36]: 8.49%

SMILES: CCN1CCN(Cc2ccc(Nc3ncc(F)c(-c4cc(F)c5nc(C)n(C(C)C)c5c4)n3)nc2)CC1 + CCn1c(-c2cc(N3CCN(C)CC3)cnc2C(C)OC)c2c3cc(ccc31)-c1csc(n1)CC(NC(=O)C1CC1C)C(=O)N1CCCC(N1)C(=O)OCC(C)(C)C2
- IC50 (second compound 0.000949 µM): < 3.16 nM
- IC50 (second compound 0.003 µM): < 3.16 nM
- IC50 (second compound 0.00949 µM): < 3.16 nM
- IC50 (second compound 0.03 µM): < 3.16 nM
- IC50 (second compound 0.0949 µM): < 3.16 nM
- IC50 (second compound 0.3 µM): < 3.16 nM
- viability, T/C (second compound 0.000949 µM, first compound 0.00316 µM): 43.2%
- viability, T/C (second compound 0.000949 µM, first compound 0.01 µM): 39.4%
- viability, T/C [1]: 39.4%
- viability, T/C [2]: 31.6%
- viability, T/C [3]: 43.6%
- viability, T/C [4]: 47.6%
- viability, T/C (second compound 0.003 µM, first compound 0.00316 µM): 39.4%
- viability, T/C (second compound 0.003 µM, first compound 0.01 µM): 40.9%
- viability, T/C [7]: 41.2%
- viability, T/C [8]: 39.2%
- viability, T/C [9]: 37.9%
- viability, T/C [10]: 36.6%
- viability, T/C (second compound 0.00949 µM, first compound 0.00316 µM): 35.8%
- viability, T/C (second compound 0.00949 µM, first compound 0.01 µM): 30.1%
- viability, T/C [13]: 28.4%
- viability, T/C [14]: 22.8%
- viability, T/C [15]: 27.5%
- viability, T/C [16]: 25.9%
- viability, T/C (second compound 0.03 µM, first compound 0.00316 µM): 23%
- viability, T/C (second compound 0.03 µM, first compound 0.01 µM): 18.4%
- viability, T/C [19]: 17%
- viability, T/C [20]: 16.8%
- viability, T/C [21]: 16.4%
- viability, T/C [22]: 16.5%
- viability, T/C (second compound 0.0949 µM, first compound 0.00316 µM): 12.1%
- viability, T/C (second compound 0.0949 µM, first compound 0.01 µM): 11%
- viability, T/C [25]: 11.4%
- viability, T/C [26]: 8.7%
- viability, T/C [27]: 13.6%
- viability, T/C [28]: 14.8%
- viability, T/C (second compound 0.3 µM, first compound 0.00316 µM): 9.79%
- viability, T/C (second compound 0.3 µM, first compound 0.01 µM): 8.72%
- viability, T/C [31]: 10.5%
- viability, T/C [32]: 10%
- viability, T/C [33]: 13.9%
- viability, T/C [34]: 13.1%
